Test results published in paper PMC3480714 (Nature chemical biology, 2012).

Molecular target: T1, CobL (Rhodobacter capsulatus, UniProt D5AV04)
T1 sequence (D5AV04 214-396): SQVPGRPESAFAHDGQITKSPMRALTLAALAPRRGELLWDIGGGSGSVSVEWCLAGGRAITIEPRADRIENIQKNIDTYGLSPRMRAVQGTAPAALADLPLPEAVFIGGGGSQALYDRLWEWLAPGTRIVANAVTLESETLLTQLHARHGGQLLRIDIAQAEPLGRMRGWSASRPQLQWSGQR
Assay: X-ray crystal structure at […] Å
Type: binding

Nc1ncnc2c1ncn2[C@@H]1O[C@H](CSCC[C@H](N)C(=O)O)[C@@H](O)[C@H]1O [SAH]
X-ray crystal structure at 2.7 Å: The SAM binding site of the CobL^C subunit showing SAH bound at the C-terminal end of the Rossmann-like
